Results published in patent US8846710B2, “Method of preferentially inducing the biosynthesis of interferon” (3M Innovative Properties Company, priority 2005, dated 2014).

Tests used:
[1] = system: tumor necrosis factor (α) (TNF-α); assay: Cytokine induction in human cells: TNF-α secreted by PBMC into culture media (ORIGEN M-Series immunoassay); type: cell-based; design: key to Maximal Response (pg/mL) TNF / Maximal Response TNF: If any negative values result from background subtraction, the reading is reported as “*”, and is noted as not reliably detectable; settings: for Minimum Effective Concentration TNF / Maximal Response TNF / minimal effective concentration: human PBMC; for Minimum Effective Concentration TNF: median where tested in more than one experiment; for Maximal Response TNF / Maximal Response (pg/mL) TNF: median; for minimal effective concentration: lowest tested concentration inducing TNF-α over usually 40 pg/mL, median where more than one experiment, read-out: Minimum Effective Concentration (μM) TNF; for Maximal Response (pg/mL) TNF: maximal response in dose response curve
Method in brief: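 Secreted TNF-α (pg/mL) was quantified by ORIGEN M-Series immunoassay after 18 to 24 hours culture at 37° C of human PBMC (2×10^6 cells/mL final) with test compound (usually 30-0.014 μM, 3-fold series, DMSO ≤1%). Values were corrected for DMSO or experimental background and a reference-compound ratio, giving a minimum effective concentration.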

interferon (α) (IFN-α) = assay: Cytokine induction in human cells: IFN-α secreted by PBMC into culture media (ELISA); type: cell-based; design: key to Maximal Response (pg/mL) IFN: If any negative values result from background subtraction, the reading is reported as “*”, and is noted as not reliably detectable; settings: for Maximal Response IFN / Minimum Effective Concentration IFN / minimal effective concentration: human PBMC; for Maximal Response IFN / Minimum Effective Concentration IFN: median where tested in more than one experiment; for minimal effective concentration: lowest tested concentration inducing IFN-α over usually 20 pg/mL, median where more than one experiment, read-out: Minimum Effective Concentration (μM) IFN; for Maximal Response (pg/mL) IFN: maximal response in dose response curve, median
Method in brief: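 IFN-α secreted by density-gradient-isolated PBMC (final 2×10^6 cells/mL) was quantified by ELISA after 18–24 h compound exposure at 37 °C, typically 30-0.014 μM in 3-fold steps with ≤1% DMSO. Readings corrected for background and reference-compound variability; lowest concentration above usually 20 pg/mL reported, plus maximal response (pg/mL).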

[2] = Table 11, * = TNF below experimental background of 40 pg/mL
[3] = Table 12, * = below the experimental background of 40 pg/mL
[4] = Table 10, * = below experimental background level

Row | Structure (SMILES) | Minimum Effective Concentration TNF ([1]; Table 11) | Maximal Response TNF [1, 2] | Maximal Response IFN (interferon (α) (IFN-α); Table 11) | Minimum Effective Concentration IFN (interferon (α) (IFN-α); Table 11) | minimal effective concentration ([1]; Table 10) | Maximal Response (pg/mL) TNF [1, 4] | minimal effective concentration (interferon (α) (IFN-α); Table 10) | Maximal Response (pg/mL) IFN (interferon (α) (IFN-α); [4]) | other results
1 | CCCc1nc2c(N)nc3ccccc3c2n1CCCNC(=O)NC(C)C [Analog 82] | 1.11 µM | 3740 pg/mL | 6571 pg/mL | 0.12 µM | – | – | – | – | –
2 | CCc1nc2c(N)nc3ccccc3c2n1CC(C)(C)CNS(C)(=O)=O [Analog 64] | 3.33 µM | 1453 pg/mL | 1431 pg/mL | 0.12 µM | – | – | – | – | –
3 | CCCc1nc2c(N)nc3cccnc3c2n1CC(C)(C)O [Analog 128, 1-(4-amino-2-propyl-1H-imidazo[4,5-c][1,5]naphthyridin-1-yl)-2-methylpropan-2-ol] | – | – | – | – | – | – | – | – | Maximal Response TNF [1, 3]: 5526 pg/mL; Maximal Response IFN (interferon (α) (IFN-α); Table 12): 2484 pg/mL
4 | CCOCc1nc2c(N)nc3cc(-c4ccccc4)ccc3c2n1CCCN1CCCC1=O [Analog 22] | – | – | – | – | 1.11 µM | 62 pg/mL | 0.37 µM | 1665 pg/mL | –
5 | CCCc1nc2c(N)nc3cc(-c4cccnc4)ccc3c2n1CC1CCN(C(=O)C(C)C)CC1 [Analog 20] | – | – | – | – | 0.37 µM | 1054 pg/mL | 0.12 µM | 1157 pg/mL | –
6 | Cc1ccc(-c2ccc3c(c2)nc(N)c2nc(CO)n(CC(C)(C)O)c23)cc1 [Example 165] | – | – | – | – | 0.37 µM | – | 0.37 µM | – | –
7 | NCCCCn1c(CCO)nc2c(N)nc3ccccc3c21 [Example 114] | >30 µM | * | 23 pg/mL | 30 µM | – | – | – | – | –
8 | CCCC(=O)NCCCCn1c(COCC)nc2c(N)nc3cc(-c4cccnc4)ccc3c21 [Analog 31] | – | – | – | – | 1.11 µM | 991 pg/mL | 0.12 µM | 965 pg/mL | –
9 | Cc1nc2c(N)nc3ccccc3c2n1CCOCCN(C)S(C)(=O)=O [Analog 77] | 1.11 µM | 3571 pg/mL | 1001 pg/mL | 0.12 µM | – | – | – | – | –
10 | CC(C)CC(=O)NCCn1c(CCO)nc2c(N)nc3ccccc3c21 [Example 138] | >30 µM | * | 36 pg/mL | 3.33 µM | – | – | – | – | –
11 | Nc1nc2ccccc2c2c1nc(CCO)n2CCCCCCCCNC(=O)c1ccccc1 [Example 121] | 3.33 µM | 180 pg/mL | 2441 pg/mL | 0.37 µM | – | – | – | – | –
12 | Nc1nc2ccccc2c2c1nc(CCO)n2CCCCNC(=O)c1cnc2ccccc2c1 [Example 116] | 30 µM | 1112 pg/mL | 8361 pg/mL | 0.37 µM | – | – | – | – | –
13 | Cc1nc2c(N)nc3ccccc3c2n1CCNS(C)(=O)=O [Analog 68] | 10 µM | 820 pg/mL | 1610 pg/mL | 0.12 µM | – | – | – | – | –
14 | COCCc1nc2c(N)nc3cc(-c4ccccc4)ccc3c2n1CCCN1CCCC1=O [Analog 21] | – | – | – | – | 1.11 µM | 201 pg/mL | 0.12 µM | 1880 pg/mL | –
15 | CCCc1nc2c(N)nc3ccccc3c2n1CCCCNC(=O)N1CCOCC1 [Analog 55] | 1.11 µM | 1298 pg/mL | 11255 pg/mL | 0.12 µM | – | – | – | – | –
16 | CCCc1nc2c(N)nc3ccccc3c2n1CCCNS(C)(=O)=O [Analog 60] | 10 µM | 109 pg/mL | 2148 pg/mL | 1.11 µM | – | – | – | – | –
17 | CCOCc1nc2c(N)nc3ccccc3c2n1CC(C)(C)CNS(C)(=O)=O [Analog 66] | 0.37 µM | 3768 pg/mL | 561 pg/mL | 0.12 µM | – | – | – | – | –
18 | Nc1nc2cc(-c3cccnc3)ccc2c2c1nc(CCO)n2CCCN1CCCC1=O [Example 160] | – | – | – | – | >30 µM | * | 30 µM | 109 pg/mL | –

Row | Structure (SMILES) | Minimum Effective Concentration TNF ([1]; Table 11) | Maximal Response TNF [1, 2] | Maximal Response IFN (interferon (α) (IFN-α); Table 11) | Minimum Effective Concentration IFN (interferon (α) (IFN-α); Table 11) | minimal effective concentration ([1]; Table 10) | Maximal Response (pg/mL) TNF [1, 4] | minimal effective concentration (interferon (α) (IFN-α); Table 10) | Maximal Response (pg/mL) IFN (interferon (α) (IFN-α); [4]) | other results
19 | CCCc1nc2c(N)nc3cc(-c4cccnc4)ccc3c2n1CC(C)(C)O [Analog 9, 1-(4-amino-2-propyl-7-pyridin-3-yl-1H-imidazo[4,5-c]quinolin-1-yl)-2-methylpropan-2-ol] | – | – | – | – | – | 3951 pg/mL | – | 597 pg/mL | Maximal Response (pg/mL) TNF ([1]; Table 9, * = below experimental background level of 40 pg/mL): 3951 pg/mL; Maximal Response (pg/mL) IFN (interferon (α) (IFN-α); Table 9, background-subtracted, reference-adjusted): 597 pg/mL
20 | CCCc1nc2c(N)nc3cc(-c4cncc(CO)c4)ccc3c2n1CC(C)(C)O [Analog 17] | – | – | – | – | 0.12 µM | 16482 pg/mL | 0.014 µM | 1079 pg/mL | –
21 | CC(C)(CNC(=O)Nc1ccccc1)Cn1c(CCO)nc2c(N)nc3ccccc3c21 [Example 130] | 3.33 µM | 2001 pg/mL | 8361 pg/mL | 0.014 µM | – | – | – | – | –
22 | CCCC(=O)NCCCCn1c(CCC)nc2c(N)nc3cc(-c4cccnc4)ccc3c21 [Analog 32] | – | – | – | – | 0.37 µM | 1647 pg/mL | 0.12 µM | 862 pg/mL | –
23 | CCNC(=O)NCCn1c(CC)nc2c(N)nc3ccccc3c21 [Analog 103] | 10 µM | 3250 pg/mL | 1031 pg/mL | 3.33 µM | – | – | – | – | –
24 | Cc1nc2c(N)nc3ccccc3c2n1CCCCCS(C)(=O)=O [Analog 73] | 3.33 µM | 771 pg/mL | 1294 pg/mL | 0.37 µM | – | – | – | – | –
25 | CCOCc1nc2c(N)nc3cc(-c4cncc(CO)c4)ccc3c2n1CC1CCCCC1 [Analog 45] | – | – | – | – | 1.11 µM | 2865 pg/mL | 0.014 µM | 1062 pg/mL | –
26 | Cc1nc2c(N)nc3cccnc3c2n1CC(C)(C)F [Analog 131, 1-(2-fluoro-2-methylpropyl)-2-methyl-1H-imidazo[4,5-c][1,5]naphthyridin-4-amine] | – | – | – | – | – | – | – | – | Maximal Response TNF [1, 3]: 1679 pg/mL; Maximal Response IFN (interferon (α) (IFN-α); Table 12): 2120 pg/mL
27 | Nc1nc2ccccc2c2c1nc(CCO)n2CCCCCCCCNC(=O)Nc1ccccc1 [Example 118] | >30 µM | * | 5177 pg/mL | 0.37 µM | – | – | – | – | –
28 | CS(=O)(=O)NCCCn1c(CCO)nc2c(N)nc3ccccc3c21 [Example 122] | >30 µM | * | 9651 pg/mL | 3.33 µM | – | – | – | – | –
29 | CC(C)Cn1c(CO)nc2c(N)nc3cccnc3c21 [Example 633, [4-Amino-1-(2-methylpropyl)-1H-imidazo[4,5-c][1,5]naphthyridin-2-yl]methanol] | – | – | – | – | – | – | – | – | Maximal Response TNF [1, 3]: 363 pg/mL; Maximal Response IFN (interferon (α) (IFN-α); Table 12): 1592 pg/mL
30 | CCCc1nc2c(N)nc3ccccc3c2n1CCOCCN(C)S(C)(=O)=O [Analog 79] | 3.33 µM | 1312 pg/mL | 1055 pg/mL | 0.37 µM | – | – | – | – | –
31 | CCCc1nc2c(N)nc3ccccc3c2n1CCNS(C)(=O)=O [Analog 70] | 10 µM | 11432 pg/mL | 2003 pg/mL | 30 µM | – | – | – | – | –
32 | CCc1nc2c(N)nc3cc(-c4cncc(CO)c4)ccc3c2n1CC(C)(C)O [Analog 15] | – | – | – | – | 1.11 µM | 10087 pg/mL | 0.014 µM | 2084 pg/mL | –
33 | Nc1nc2cc(-c3ccccc3)ccc2c2c1nc(CCO)n2CCCN1CCCC1=O [Example 156] | – | – | – | – | >30 µM | * | >30 µM | * | –
34 | CCNC(=O)NCCn1c(CCOC)nc2c(N)nc3ccccc3c21 [Analog 104] | 0.12 µM | 7719 pg/mL | 2587 pg/mL | 0.014 µM | – | – | – | – | –
35 | CS(=O)(=O)NCCCCn1c(CCO)nc2c(N)nc3ccccc3c21 [Example 3, N-{4-[4-Amino-2-(2-hydroxyethyl)-1H-imidazo[4,5-c]quinolin 1-yl]butyl}methanesulfonamide] | – | * | 2340 pg/mL | – | – | – | – | – | –
